# Assay results taken from article PMC3445516 (PLoS ONE, 2012).
# Where two headings read alike, the source gives them in different places.
# Legend:
# NLK = biological target: T1, NLK (Homo sapiens, UniProt Q9UBE8); experiment: Ambit kinase profiling, competition binding
# T1 construct: purchased Ambit Biosciences (KINOMEscan)
# T1 sequence (Q9UBE8 1-527): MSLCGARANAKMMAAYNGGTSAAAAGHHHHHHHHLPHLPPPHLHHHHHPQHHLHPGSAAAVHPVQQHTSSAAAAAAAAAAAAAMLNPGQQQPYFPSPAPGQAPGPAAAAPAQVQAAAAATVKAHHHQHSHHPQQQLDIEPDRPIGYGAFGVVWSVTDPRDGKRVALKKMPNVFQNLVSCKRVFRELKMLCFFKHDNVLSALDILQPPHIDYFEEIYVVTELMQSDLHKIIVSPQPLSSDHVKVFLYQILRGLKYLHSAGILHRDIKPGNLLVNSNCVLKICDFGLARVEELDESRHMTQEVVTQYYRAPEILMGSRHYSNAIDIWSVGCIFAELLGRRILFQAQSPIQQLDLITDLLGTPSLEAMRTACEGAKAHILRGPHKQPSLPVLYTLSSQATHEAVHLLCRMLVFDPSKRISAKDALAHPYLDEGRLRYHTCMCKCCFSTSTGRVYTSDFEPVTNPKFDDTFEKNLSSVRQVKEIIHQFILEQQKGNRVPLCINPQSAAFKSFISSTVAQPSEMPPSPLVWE
# Description: (§1) Also included in the kinase profile are four isoforms of PKC (δ, ε, η, θ) and eight isoforms of CAMKs (CAMKIα, δ, γ; CAMKIIα, β, δ, γ; CAMK4).
# (§2) The global kinase profiling experiment was performed by Ambit Biosciences.
# [1] = biological target: T2, recombinant GST-tagged human protein kinase D1 (PKD1) (Homo sapiens, UniProt Q15139); experiment: In vitro radiometric PKD1 kinase assay; type: biochemical; details: read-out: Inhibition of PKD1
# T2 construct: purchased Enzo Life sciences (Farmingdale, NY)
# T2 sequence (Q15139 1-912): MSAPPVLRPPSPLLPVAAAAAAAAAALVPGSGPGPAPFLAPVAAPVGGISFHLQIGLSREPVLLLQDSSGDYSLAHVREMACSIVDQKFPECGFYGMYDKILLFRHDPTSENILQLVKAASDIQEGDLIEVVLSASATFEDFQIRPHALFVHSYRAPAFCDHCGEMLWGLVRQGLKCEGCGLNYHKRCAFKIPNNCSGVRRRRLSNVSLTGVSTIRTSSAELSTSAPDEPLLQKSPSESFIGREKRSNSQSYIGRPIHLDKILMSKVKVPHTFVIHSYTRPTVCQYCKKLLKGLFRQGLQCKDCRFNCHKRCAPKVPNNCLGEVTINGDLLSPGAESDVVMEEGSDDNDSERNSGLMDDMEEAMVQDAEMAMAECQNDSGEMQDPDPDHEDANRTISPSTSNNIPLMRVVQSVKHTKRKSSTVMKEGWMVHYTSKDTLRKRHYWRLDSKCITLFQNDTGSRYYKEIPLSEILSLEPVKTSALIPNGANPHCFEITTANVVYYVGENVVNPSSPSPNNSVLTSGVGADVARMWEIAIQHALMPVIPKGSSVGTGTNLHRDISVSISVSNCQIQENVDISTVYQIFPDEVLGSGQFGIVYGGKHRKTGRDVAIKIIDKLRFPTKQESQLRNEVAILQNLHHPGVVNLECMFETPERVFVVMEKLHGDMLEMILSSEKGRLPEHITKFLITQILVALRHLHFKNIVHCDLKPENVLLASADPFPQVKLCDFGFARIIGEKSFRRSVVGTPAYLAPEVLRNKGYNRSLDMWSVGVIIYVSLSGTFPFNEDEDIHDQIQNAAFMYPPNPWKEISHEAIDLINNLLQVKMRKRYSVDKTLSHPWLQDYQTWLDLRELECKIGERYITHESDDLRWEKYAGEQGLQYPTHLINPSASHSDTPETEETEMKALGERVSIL
# Description: All compounds were given distinct UPCMLD (University of Pittsburgh Center for Chemical Methodologies and Library Development) IDs and were then assigned numerical IDs for convenient data display. Evaluation of each compound was carried out in triplicate at a single concentration (1 µM). Our previously described PKD1 inhibitor, kb-NB142-70, and DMSO (solvent alone) were used as positive and negative controls, respectively. Percent residual kinase activity was calculated based on that of the negative control (DMSO).
# Kinase active recombinant GST-tagged human protein kinase D1 (PKD1) was obtained from Enzo Life sciences (Farmingdale, NY). DMSO was purchased from Sigma. Recombinant PKCα, PKCδ and CAMKIIα were obtained from SignalChem (Richmond, BC, Canada). ATP was purchased from Fisher Scientific. HDAC5 substrate peptide was synthesized by Biobasic Canada Inc. (Markham, ON). Myelin basic protein 4–14 was purchased from AnaSpec Inc. (Fremont, CA). The targeted kinase inhibitor library was obtained from Hoffmann-La Roche, Inc.
# 1.2 µg of HDAC-5 was used as substrate in the reaction. Phosphorylation of HDAC5 was detected in a kinase reaction having 1 µCi [γ-^32P] […] The reaction was incubated at 30° for 10 minutes and 25 µL of the reaction was spotted on Whatman P81 filter paper. The filter paper was washed 3 times in 0.5% phosphoric acid, air dried and counted using Beckman LS6500 multipurpose scintillation counter. Percent PKD1 inhibition was graphed using GraphPad Prism software 5.0.
# PKCδ = PKCδ (Homo sapiens, UniProt Q05655); experiment: Ambit kinase profiling, competition binding; design: purchased Ambit Biosciences (KINOMEscan); details: for competition: PKC δ, 10 µM
# PKCδ, sequence (Q05655 whole entry): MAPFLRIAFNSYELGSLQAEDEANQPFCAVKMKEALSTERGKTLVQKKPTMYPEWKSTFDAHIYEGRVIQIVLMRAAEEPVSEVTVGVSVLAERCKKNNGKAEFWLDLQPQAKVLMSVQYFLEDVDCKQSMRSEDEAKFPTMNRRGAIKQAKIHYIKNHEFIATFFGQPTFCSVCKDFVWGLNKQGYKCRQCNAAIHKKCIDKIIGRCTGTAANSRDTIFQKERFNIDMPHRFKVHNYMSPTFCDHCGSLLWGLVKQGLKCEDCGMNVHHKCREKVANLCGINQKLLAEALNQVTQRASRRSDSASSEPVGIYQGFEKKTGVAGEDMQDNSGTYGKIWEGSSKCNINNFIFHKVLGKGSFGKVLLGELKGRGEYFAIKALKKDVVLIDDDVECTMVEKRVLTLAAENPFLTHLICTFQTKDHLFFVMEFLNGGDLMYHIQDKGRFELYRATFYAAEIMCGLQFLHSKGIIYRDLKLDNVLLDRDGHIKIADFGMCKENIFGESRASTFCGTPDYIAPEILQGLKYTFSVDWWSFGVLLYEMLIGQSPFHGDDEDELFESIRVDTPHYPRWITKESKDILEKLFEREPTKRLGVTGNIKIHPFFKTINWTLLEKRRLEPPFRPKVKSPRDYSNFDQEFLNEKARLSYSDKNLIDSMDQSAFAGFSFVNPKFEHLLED
# Description: as §1, §2
# EGFR(L747-T751del,Sins) = experiment: Ambit kinase profiling, competition binding; design: species or system human; details: for % Competition: 10 µM
# Description: as §1, §2
# p38α = p38α (Homo sapiens, UniProt Q16539); design: method as in PMID 14561090; details: read-out: in vitro IC50 for p38α; cited from earlier work
# p38α, sequence (Q16539 whole entry): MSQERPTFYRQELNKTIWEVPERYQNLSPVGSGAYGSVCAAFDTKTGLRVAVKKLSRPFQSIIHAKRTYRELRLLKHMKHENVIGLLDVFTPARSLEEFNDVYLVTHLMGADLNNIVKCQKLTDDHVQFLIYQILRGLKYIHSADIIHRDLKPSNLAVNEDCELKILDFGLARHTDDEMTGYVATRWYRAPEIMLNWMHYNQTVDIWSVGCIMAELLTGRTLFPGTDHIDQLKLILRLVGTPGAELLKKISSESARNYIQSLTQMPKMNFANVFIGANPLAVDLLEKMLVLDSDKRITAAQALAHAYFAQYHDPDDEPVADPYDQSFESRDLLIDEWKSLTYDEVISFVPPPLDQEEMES
# NEK5 = biological target: T3, NEK5 (Homo sapiens, UniProt Q6P3R8); experiment: Ambit kinase profiling, competition binding; details: compound concentration 10 uM, read-out: Percent Competition
# T3 construct: purchased Ambit Biosciences (KINOMEscan)
# T3 sequence (Q6P3R8 whole entry): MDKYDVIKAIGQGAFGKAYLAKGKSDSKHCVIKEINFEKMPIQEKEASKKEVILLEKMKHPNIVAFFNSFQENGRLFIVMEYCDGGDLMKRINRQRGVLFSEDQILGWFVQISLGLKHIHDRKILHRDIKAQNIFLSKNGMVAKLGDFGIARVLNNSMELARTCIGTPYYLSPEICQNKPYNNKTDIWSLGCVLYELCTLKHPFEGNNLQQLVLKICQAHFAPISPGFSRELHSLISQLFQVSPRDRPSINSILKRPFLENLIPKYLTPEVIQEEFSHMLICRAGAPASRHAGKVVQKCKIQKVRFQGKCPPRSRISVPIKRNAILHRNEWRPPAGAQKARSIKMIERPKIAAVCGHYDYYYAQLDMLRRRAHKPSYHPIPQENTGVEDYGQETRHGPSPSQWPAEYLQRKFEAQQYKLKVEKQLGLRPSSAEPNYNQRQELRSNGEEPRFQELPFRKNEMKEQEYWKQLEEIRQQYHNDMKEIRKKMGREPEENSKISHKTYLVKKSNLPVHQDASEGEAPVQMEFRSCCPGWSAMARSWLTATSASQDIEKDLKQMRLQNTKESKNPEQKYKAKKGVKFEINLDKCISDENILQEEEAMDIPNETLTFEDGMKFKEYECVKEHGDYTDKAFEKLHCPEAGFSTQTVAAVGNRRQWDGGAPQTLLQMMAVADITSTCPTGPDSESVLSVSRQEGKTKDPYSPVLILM
# Excerpt: (§3) Supplement pone.0044653.s004.xls, sheet "Compound 122" | column: Percent Competition
# MYO3A = biological target: T4, MYO3A (Homo sapiens, UniProt Q8NEV4); experiment: Ambit kinase profiling, competition binding; details: compound concentration 10 uM, read-out: Percent Competition
# T4 construct: purchased Ambit Biosciences (KINOMEscan)
# T4 sequence (Q8NEV4 whole entry): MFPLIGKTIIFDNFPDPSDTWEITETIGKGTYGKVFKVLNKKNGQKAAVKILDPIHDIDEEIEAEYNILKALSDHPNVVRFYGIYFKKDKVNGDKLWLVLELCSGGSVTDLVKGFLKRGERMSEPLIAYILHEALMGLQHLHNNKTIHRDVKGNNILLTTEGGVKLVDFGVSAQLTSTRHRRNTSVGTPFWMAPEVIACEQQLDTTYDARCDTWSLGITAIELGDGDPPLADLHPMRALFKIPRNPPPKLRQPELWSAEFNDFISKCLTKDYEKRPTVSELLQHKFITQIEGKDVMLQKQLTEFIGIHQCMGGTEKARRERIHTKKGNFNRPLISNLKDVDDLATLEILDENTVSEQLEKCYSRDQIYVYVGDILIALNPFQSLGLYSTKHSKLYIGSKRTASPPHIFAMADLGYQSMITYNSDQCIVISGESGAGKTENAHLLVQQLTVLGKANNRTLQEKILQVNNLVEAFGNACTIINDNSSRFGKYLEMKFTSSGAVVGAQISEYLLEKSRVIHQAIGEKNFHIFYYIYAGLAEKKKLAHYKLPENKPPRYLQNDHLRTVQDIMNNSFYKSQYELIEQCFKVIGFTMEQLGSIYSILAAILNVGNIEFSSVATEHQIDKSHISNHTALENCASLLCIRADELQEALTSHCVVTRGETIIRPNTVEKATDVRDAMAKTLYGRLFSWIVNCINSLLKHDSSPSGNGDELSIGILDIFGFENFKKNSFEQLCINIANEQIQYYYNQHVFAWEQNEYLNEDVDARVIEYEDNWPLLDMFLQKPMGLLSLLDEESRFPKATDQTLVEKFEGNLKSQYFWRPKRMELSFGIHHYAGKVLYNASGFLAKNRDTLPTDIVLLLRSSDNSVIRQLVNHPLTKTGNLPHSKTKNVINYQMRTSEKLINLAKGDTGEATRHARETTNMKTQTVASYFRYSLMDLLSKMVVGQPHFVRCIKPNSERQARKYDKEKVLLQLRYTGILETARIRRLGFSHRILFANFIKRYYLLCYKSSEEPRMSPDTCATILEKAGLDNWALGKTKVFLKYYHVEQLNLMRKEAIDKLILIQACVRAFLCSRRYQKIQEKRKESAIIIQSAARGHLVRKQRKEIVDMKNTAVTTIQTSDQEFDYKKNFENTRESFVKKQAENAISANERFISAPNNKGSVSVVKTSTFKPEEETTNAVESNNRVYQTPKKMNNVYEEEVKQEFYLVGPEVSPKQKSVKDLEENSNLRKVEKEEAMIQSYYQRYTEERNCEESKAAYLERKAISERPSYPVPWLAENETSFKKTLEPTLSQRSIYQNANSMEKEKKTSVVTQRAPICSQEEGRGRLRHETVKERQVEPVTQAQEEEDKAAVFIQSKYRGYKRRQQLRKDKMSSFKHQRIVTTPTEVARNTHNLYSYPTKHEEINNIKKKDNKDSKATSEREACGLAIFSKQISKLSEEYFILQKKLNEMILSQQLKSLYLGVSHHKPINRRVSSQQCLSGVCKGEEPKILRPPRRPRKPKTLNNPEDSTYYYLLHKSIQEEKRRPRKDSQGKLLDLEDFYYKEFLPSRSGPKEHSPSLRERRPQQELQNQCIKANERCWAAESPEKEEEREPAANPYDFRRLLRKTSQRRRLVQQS
# Excerpt: as §3
# BMPR1A = biological target: T5, BMPR1A (Homo sapiens, UniProt P36894); experiment: Ambit kinase profiling, competition binding; details: compound concentration 10 uM, read-out: Percent Competition
# T5 construct: purchased Ambit Biosciences (KINOMEscan)
# T5 sequence (P36894 24-532): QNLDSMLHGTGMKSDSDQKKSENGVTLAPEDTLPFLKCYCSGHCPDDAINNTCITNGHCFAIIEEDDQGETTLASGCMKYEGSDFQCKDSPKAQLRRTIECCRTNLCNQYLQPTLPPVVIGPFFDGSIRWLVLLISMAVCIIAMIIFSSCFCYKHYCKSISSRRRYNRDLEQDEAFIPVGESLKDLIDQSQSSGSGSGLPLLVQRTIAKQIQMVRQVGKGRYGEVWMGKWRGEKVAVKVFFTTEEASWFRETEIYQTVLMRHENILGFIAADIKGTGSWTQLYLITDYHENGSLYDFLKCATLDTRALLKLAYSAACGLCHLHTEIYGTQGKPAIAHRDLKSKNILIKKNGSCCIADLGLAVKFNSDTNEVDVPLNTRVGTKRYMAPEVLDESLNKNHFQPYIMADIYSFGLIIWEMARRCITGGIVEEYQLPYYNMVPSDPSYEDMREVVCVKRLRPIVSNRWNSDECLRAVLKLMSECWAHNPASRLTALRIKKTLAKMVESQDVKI
# Excerpt: as §3
# [2] = biological target: T6, RPS6KA6(Kin.Dom.1-N-terminal) (Homo sapiens, UniProt Q9UK32); experiment: Ambit kinase profiling, competition binding; details: compound concentration 10 uM
# T6 construct: RPS6KA6(Kin.Dom.1-N-terminal); purchased Ambit Biosciences (KINOMEscan)
# T6 sequence (Q9UK32 1-400 limits assumed): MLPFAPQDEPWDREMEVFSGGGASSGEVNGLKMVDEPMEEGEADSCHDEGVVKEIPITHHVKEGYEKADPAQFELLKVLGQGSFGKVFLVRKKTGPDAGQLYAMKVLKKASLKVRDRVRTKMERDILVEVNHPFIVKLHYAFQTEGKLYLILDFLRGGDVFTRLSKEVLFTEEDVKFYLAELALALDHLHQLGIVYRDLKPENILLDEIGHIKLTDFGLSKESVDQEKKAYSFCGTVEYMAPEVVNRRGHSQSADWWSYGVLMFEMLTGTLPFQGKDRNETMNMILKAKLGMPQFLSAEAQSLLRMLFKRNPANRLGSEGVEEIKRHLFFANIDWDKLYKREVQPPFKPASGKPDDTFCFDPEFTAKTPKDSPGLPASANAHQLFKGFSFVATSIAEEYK
# Excerpt: as §3
# AKT3 = biological target: T7, AKT3 (Homo sapiens, UniProt Q9Y243); experiment: Ambit kinase profiling, competition binding; details: compound concentration 10 uM, read-out: Percent Competition
# T7 construct: purchased Ambit Biosciences (KINOMEscan)
# T7 sequence (Q9Y243 whole entry): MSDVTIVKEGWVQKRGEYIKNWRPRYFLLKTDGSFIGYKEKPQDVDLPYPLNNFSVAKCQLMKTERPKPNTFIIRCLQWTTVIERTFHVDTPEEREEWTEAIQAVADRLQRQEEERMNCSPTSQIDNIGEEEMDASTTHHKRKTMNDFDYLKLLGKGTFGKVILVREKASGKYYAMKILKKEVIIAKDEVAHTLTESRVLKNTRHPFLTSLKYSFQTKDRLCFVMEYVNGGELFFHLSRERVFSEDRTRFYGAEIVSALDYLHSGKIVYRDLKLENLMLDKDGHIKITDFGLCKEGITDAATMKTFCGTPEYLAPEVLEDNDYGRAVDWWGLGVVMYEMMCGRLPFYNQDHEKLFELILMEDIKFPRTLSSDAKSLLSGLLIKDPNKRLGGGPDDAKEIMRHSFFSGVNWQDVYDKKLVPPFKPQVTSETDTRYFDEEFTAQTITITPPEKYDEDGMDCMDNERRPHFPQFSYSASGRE
# Excerpt: as §3
# FLT3(ITD) = experiment: Ambit kinase profiling, competition binding; design: species or system human; details: compound concentration 10 uM
# Excerpt: as §3
Structure (SMILES),"inhibition at 10 µM (NLK; NLK, 10 µM, read-out: % Competition)","inhibition at 1 µM ([1]; 1 µM, triplicate determinations)",competition (PKCδ),"% Competition (EGFR(L747-T751del,Sins))",IC50 (p38α),inhibition at 10 µM (NLK; read-out: % Competition),inhibition at 1 µM [1],"inhibition at 10 µM (NLK; NLK, compound concentration 10 uM, read-out: Percent Competition)",inhibition at 10 µM (NEK5),inhibition at 10 µM (MYO3A),inhibition at 10 µM (BMPR1A),Percent Competition [2],inhibition at 10 µM (AKT3),Percent Competition (FLT3(ITD)),"inhibition at 10 µM (PKCδ; PRKCD, compound concentration 10 uM, read-out: Percent Competition)","Percent Competition (EGFR(L747-T751del,Sins); compound concentration 10 uM)"
Fc1ccc(-c2c(-c3ccncc3)[nH]c3nccnc23)cc1 [Compound 122],98%,62%,< 50%,97%,–,–,–,–,–,–,–,–,–,–,–,–
CC(O)CNc1cc(-c2[nH]c3cccnc3c2-c2ccc(F)cc2)ccn1 (stereo not drawn) [Compound 140],–,–,< 50%,90%,1 nM,91%,80%,–,–,–,–,–,–,–,–,–
Fc1ccc(-c2c(-c3ccncc3)[nH]c3nccnc23)cc1 [RO1155697-000-005],–,–,–,–,–,–,–,98%,< 50%,< 50%,< 50%,<50%,< 50%,<50%,< 50%,97%
